Laboratory results taken from US20060069132A1, “Azolecarboxamide herbicides” (priority 2004, published 2006).

Columns and labels:
[1] = tested on: giant foxtail; test: Test A pre-/postemergence herbicide test; assay type: in vivo, Setaria faberi
How it was run: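 Both application timings were run together: directed soil spray over freshly planted seeds in sandy loam, and runoff spray onto 2–10 cm seedlings. Evaluation after ~10 days in greenhouse used a 0–100 visual scale versus untreated controls.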

[2] = tested on: rice; test: Test B pre-/postemergence herbicide test; assay type: in vivo, Oryza sativa; details: for Plant response rating, Rice: preemergence
How it was run: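 Seeds were planted and treated preemergence with compounds formulated in a non-phytotoxic solvent mixture containing surfactant, while plants at the 1- to 4-leaf stage (2 to 18 cm) received postemergence sprays. Flooded paddy plants were grown to the 2-leaf stage. After 13 to 15 days in a greenhouse, injury was visually rated 0–100 against untreated controls.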

[3] = tested on: large crabgrass; test: Test C pre-/postemergence herbicide test; assay type: in vivo, Digitaria sanguinalis; details: for Crabgrass, Large plant response rating: 500 g ai/ha
How it was run: (§1)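 Emerged plants at the 1- to 4-leaf stage (2–18 cm), or freshly planted seeds, received test chemicals in a non-phytotoxic solvent mixture with surfactant. Response was visually scored against controls after 12 to 14 days in the greenhouse, on a 0 (no effect) to 100 (complete control) scale.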

[4] = tested on: goosegrass; test: Test C pre-/postemergence herbicide test; assay type: in vivo, Eleusine indica; details: for Goosegrass plant response rating: 500 g ai/ha
How it was run: as §1

[5] = tested on: kochia; test: Test C pre-/postemergence herbicide test; assay type: in vivo, Kochia scoparia; details: for Kochia plant response rating: 500 g ai/ha
How it was run: as §1

[6] = tested on: pigweed; test: Test C pre-/postemergence herbicide test; assay type: in vivo, Amaranthus retroflexus; details: for Pigweed plant response rating: 500 g ai/ha
How it was run: as §1

[7] = tested on: common ragweed; test: Test C pre-/postemergence herbicide test; assay type: in vivo, Ambrosia elatior; design: key to Plant response rating, Ragweed: 0 = no effect, 100 = complete control; details: for Ragweed plant response rating: 500 g ai/ha
How it was run: as §1

[8] = tested on: velvetleaf; test: Test C pre-/postemergence herbicide test; assay type: in vivo, Abutilon theophrasti; details: for Velvetleaf plant response rating: 500 g ai/ha
How it was run: as §1

[9] = tested on: chickweed; test: Test C postemergence herbicide test; assay type: in vivo, Stellaria media; details: for Chickweed plant response rating: 500 g ai/ha
How it was run: (§2)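 Visual rating, 0 (no effect) to 100 (complete control), vs. controls at 12–14 d in greenhouse. Postemergence: 1–4-leaf plants, 2–18 cm. Paddy: flooded, barnyardgrass at 2-leaf stage.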

[10] = tested on: barnyardgrass; test: Test C flooded paddy test; assay type: in vivo, Echinochloa crus-galli
How it was run: as §2

[11] = Postemergence, 500 g ai/ha, 0 to 100 scale, 0 no effect, 100 complete control
[12] = Postemergence, 2000 g ai/ha, 0 to 100 scale, 0 no effect, 100 complete control
[13] = Preemergence, 500 g ai/ha, visual rating, 0 to 100 scale (0 no effect, 100 complete control)
[14] = Preemergence, 2000 g ai/ha, 0 to 100 scale, 0 no effect, 100 complete control
[15] = 125 g ai/ha, 0 to 100 scale, 0 is no effect, 100 is complete control
[16] = Postemergence, 250 g ai/ha, scale 0 to 100, 0 no effect, 100 complete control
[17] = postemergence, 62 g ai/ha, scale 0 to 100
[18] = postemergence, 125 g ai/ha, scale 0 to 100
[19] = 125 g ai/ha, scale 0 (no effect) to 100 (complete control), visual, 12 to 14 days, preemergence
[20] = 250 g ai/ha, scale 0 to 100 (0 no effect, 100 complete control), visual, 12 to 14 days, preemergence
[21] = Preemergence, scale 0 to 100, 0 no effect, 100 complete control
[22] = Postemergence, 125 g ai/ha, scale 0 to 100, 0 no effect, 100 complete control

CCCCOC(=O)c1cccc(NC(=O)c2cc(C(C)(C)C)nn2CC)c1 [Compound 86]
60: Plant response rating, Goosegrass [4, 18] | Plant response rating, Velvetleaf [8, 18]
10: Plant response rating, Crabgrass, Large [3, 16] | Plant response rating, Crabgrass, Large [3, 17] | Plant response rating, Ragweed [7, 17]
100: Pigweed plant response rating ([6]; Postemergence, scale 0 to 100) | Plant response rating, Pigweed [6, 16] | Plant response rating, Pigweed [6, 18] | Plant response rating, Pigweed [6, 17] | Chickweed plant response rating ([9]; Postemergence, scale 0 to 100) | Plant response rating, Chickweed [9, 16] | Plant response rating, Chickweed [9, 18] | Plant response rating, Chickweed [9, 17]
80: Plant response rating, Goosegrass [4, 16] | Plant response rating, Kochia [5, 17] | Plant response rating, Velvetleaf [8, 16]
40: Crabgrass, Large plant response rating ([3]; Postemergence, scale 0 to 100) | Plant response rating, Velvetleaf [8, 17]
0: Foxtail, Giant plant response rating [1, 13] | Foxtail, Giant plant response rating [1, 14] | Plant response rating, Rice [2, 15]
50: Plant response rating, Goosegrass [4, 17]
20: Foxtail, Giant plant response rating [1, 11] | Plant response rating, Foxtail, Giant [1, 12]
70: Ragweed plant response rating ([7]; Postemergence, scale 0 to 100) | Plant response rating, Ragweed [7, 16]
85: Goosegrass plant response rating ([4]; Postemergence, scale 0 to 100) | Plant response rating, Kochia [5, 18] | Velvetleaf plant response rating ([8]; Postemergence, scale 0 to 100)
95: Kochia plant response rating ([5]; Postemergence, scale 0 to 100) | Plant response rating, Kochia [5, 16]
65: Plant response rating, Ragweed [7, 18]

CCn1nc(C(C)(C)C)cc1C(=O)Nc1cccc(SC(F)(F)F)c1 [Compound 130]
85: Kochia plant response rating ([5]; Postemergence, scale 0 to 100) | Ragweed plant response rating ([7]; Postemergence, scale 0 to 100) | Plant response rating, Ragweed [7, 16] | Velvetleaf plant response rating ([8]; Postemergence, scale 0 to 100)
20: Plant response rating, Crabgrass, Large [3, 16] | Plant response rating, Goosegrass [4, 19] | Plant response rating, Goosegrass [4, 18]
10: Foxtail, Giant plant response rating [1, 11] | Plant response rating, Foxtail, Giant [1, 12] | Plant response rating (0 = no effect, 100 = complete control), Goosegrass ([4]; 62 g ai/ha, preemergence) | Plant response rating, Ragweed [7, 19] | Plant response rating, Velvetleaf [8, 19]
40: Plant response rating, Ragweed [7, 18] | Plant response rating, Velvetleaf [8, 16]
95: Plant response rating, Crabgrass, Large [3, 20] | Crabgrass, Large plant response rating [3, 21]
100: Kochia plant response rating [5, 21] | Pigweed plant response rating ([6]; Postemergence, scale 0 to 100) | Plant response rating, Pigweed [6, 16] | Pigweed plant response rating [6, 21] | Plant response rating, Pigweed [6, 18] | Velvetleaf plant response rating [8, 21] | Chickweed plant response rating ([9]; Postemergence, scale 0 to 100) | Plant response rating, Chickweed [9, 16] | Plant response rating, Chickweed [9, 18]
80: Plant response rating (0 = no effect, 100 = complete control), Pigweed ([6]; 62 g ai/ha, preemergence) | Ragweed plant response rating [7, 21]
0: Plant response rating, Rice ([2]; 500 g ai/ha, visual rating 0-100, 0 no effect, 100 complete control) | Plant response rating (0 = no effect, 100 = complete control), Kochia ([5]; 62 g ai/ha, preemergence) | Plant response rating, Kochia [5, 19] | Plant response rating (0 = no effect, 100 = complete control), Ragweed ([7]; 62 g ai/ha, preemergence)
30: Plant response rating, Kochia [5, 18] | Plant response rating, Velvetleaf [8, 18]
70: Plant response rating, Kochia [5, 16]
50: Foxtail, Giant plant response rating [1, 13] | Goosegrass plant response rating [4, 21]
60: Goosegrass plant response rating ([4]; Postemergence, scale 0 to 100) | Plant response rating, Goosegrass [4, 16]
90: Plant response rating, Crabgrass, Large [3, 19] | Crabgrass, Large plant response rating ([3]; Postemergence, scale 0 to 100) | Plant response rating, Pigweed [6, 19]
55: Foxtail, Giant plant response rating ([1]; Preemergence, 2000 g ai/ha, visual rating, 0 to 100 scale (0 no effect, 100 complete control))

CCNC(=O)c1cc(NC(=O)c2cc(C(C)(C)C)nn2CC)ccc1F [Compound 58]
95: Foxtail, Giant plant response rating [1, 14] | Plant response rating, Crabgrass, Large [3, 19] | Plant response rating, Crabgrass, Large [3, 20] | Crabgrass, Large plant response rating [3, 21] | Plant response rating, Goosegrass [4, 19] | Plant response rating, Goosegrass [4, 20] | Goosegrass plant response rating [4, 21] | Plant response rating (0 = no effect, 100 = complete control), Kochia ([5]; 62 g ai/ha, preemergence) | Plant response rating, Kochia [5, 19] | Plant response rating, Kochia [5, 20]
90: Plant response rating (0 = no effect, 100 = complete control), Crabgrass, Large ([3]; 62 g ai/ha, preemergence) | Plant response rating (0 = no effect, 100 = complete control), Goosegrass ([4]; 62 g ai/ha, preemergence)
60: Plant response rating, Foxtail, Giant [1, 12] | Plant response rating, Rice [2, 15] | Plant response rating, Pigweed [6, 17] | Plant response rating (0 = no effect, 100 = complete control), Ragweed ([7]; 62 g ai/ha, preemergence) | Velvetleaf plant response rating ([8]; Postemergence, scale 0 to 100)
30: Crabgrass, Large plant response rating ([3]; Postemergence, scale 0 to 100) | Goosegrass plant response rating ([4]; Postemergence, scale 0 to 100)
15: Plant response rating, Crabgrass, Large [3, 16]
80: Rice plant response rating ([2]; Preemergence, 500 g ai/ha, scale 0 to 100) | Plant response rating, Kochia [5, 22] | Plant response rating, Kochia [5, 16]
45: Plant response rating, Foxtail, Giant [1, 11]
35: Plant response rating, Velvetleaf [8, 16] | Barnyardgrass plant response rating ([10]; 250 g ai/ha, scale of 0 to 100, 0 is no effect, 100 is complete control)
5: Plant response rating, Crabgrass, Large [3, 22] | Plant response rating, Crabgrass, Large [3, 17] | Plant response rating, Goosegrass [4, 22] | Plant response rating, Ragweed [7, 16]
100: Kochia plant response rating [5, 21] | Plant response rating (0 = no effect, 100 = complete control), Pigweed ([6]; 62 g ai/ha, preemergence) | Plant response rating, Pigweed [6, 19] | Plant response rating, Pigweed [6, 20] | Pigweed plant response rating [6, 21] | Plant response rating, Ragweed [7, 20] | Ragweed plant response rating [7, 21] | Plant response rating, Velvetleaf [8, 19] | Plant response rating, Velvetleaf [8, 20] | Velvetleaf plant response rating [8, 21]
70: Plant response rating, Pigweed [6, 16]
50: Plant response rating, Chickweed [9, 16]
0: Plant response rating, Goosegrass [4, 17] | Plant response rating, Ragweed [7, 17] | Barnyardgrass plant response rating ([10]; 62 g ai/ha, scale 0 to 100 (0 no effect, 100 complete control))
10: Plant response rating, Goosegrass [4, 16] | Plant response rating, Velvetleaf [8, 17] | Barnyardgrass plant response rating ([10]; 125 g ai/ha, scale of 0 to 100, 0 is no effect, 100 is complete control)
85: Foxtail, Giant plant response rating [1, 13] | Kochia plant response rating ([5]; Postemergence, scale 0 to 100) | Pigweed plant response rating ([6]; Postemergence, scale 0 to 100) | Plant response rating, Ragweed [7, 19] | Ragweed plant response rating ([7]; Postemergence, scale 0 to 100) | Chickweed plant response rating ([9]; Postemergence, scale 0 to 100) | Plant response rating, Barnyardgrass ([10]; 500 g ai/ha, visual rating after 12 to 14 days, scale 0 to 100 (0 no effect, 100 complete control))
20: Plant response rating, Chickweed [9, 22] | Plant response rating, Chickweed [9, 17]
75: Plant response rating, Kochia [5, 17]
